These results are taken from patent US8158143B2, “Systems for releasing active ingredients, based on biodegradable or biocompatible polymers with a shape memory effect” (Helmholtz-Zentrum Geesthacht Zentrum fuer Material- und …, priority 2000, dated 2012).

This data set is described as follows: Drug release experiments (phosphate buffer pH 7, 37° C.). It counts as physicochemical. The method, then: Furthermore drug release tests were carried out with biodegradable matrix polymers. The above mentioned polyester methacrylate networks were loaded with 5% gentamicin and enoxazin, respectively. Samples having a size of 1×2 cm^2 were cut open and placed into a medium for release (4 ml phosphate buffer, pH 7). The pieces of the films were placed in tubes for a centrifuge, in a manner allowing the buffer solution to contact the films from all sides. The centrifuge tubes were placed into a shaking water bath at 37° C. and at predetermined intervals the medium for release was exchanged completely in order to determine the amount of the drug released. […] Samples are placed into polypropylene centrifuge vessels (which may be closed) of a volume of 15 ml and placed into contact with 4 ml of the releasing medium. […] The release experiment is carried out in a temperature controlled shaking water bath at 37° C. with 60 revolutions per minute. The temperature is controlled with an accuracy of ±0.1 K. […] The experiment is concluded when all of the drug has been released. The establishment of the release profile occurs by means of determination of the released drug by UV-Vis-spectroscopy. The resulting release profiles represent the arithmetical average from parallel experiments regarding the release from three samples of one material. If the experiment is terminated prior to the complete release of the drug from the matrix, a determination of the drug remaining in the polymer network becomes necessary. […] Using 5 ml chloroform the networks are swollen, and destroyed mechanically using a glass rod. Using additional 5 ml chloroform the swollen enoxacin containing fragments are extracted. With […] containing networks extraction is carried out using 5 ml 2-propanol. […] The content of drug remaining in the matrix is added to the content as determined with the release experiment.

[1] abbreviates: from amorphous matrix N-LG(18)-10 (FIG. 4).
Setting [2] is: matrix based on paradioxanone and caprolactone, unmodified.

As to `CCOc1ccc2nc3cc(N)ccc3c(N)c2c1` [ethacridine lactate], the drug release profile entry is “released more rapidly” under setting [1] and “substantially linear release, with a slightly accelerated release at the beginning” (networks on the basis of polylactide-co-glycolide, segment Mn about 10000, 15 wt.-% glycolide content).
For `O=C1CN(/N=C/c2ccc([N+](=O)[O-])o2)C(=O)N1` [nitrofurantoine], the drug release profile entry under setting [1] is recorded as “step profile”.
Turning to gentamicin, under setting [2], the “drug release profile at the beginning of the release” value is reported as “rapid release (burst-effect)” and the “time until plateau of release is reached” value is “within two days”.
